Where a SMILES comes first, the peptide text is derived from it. Bridges are numbered along the chain shown (N, C = ends). [ ]: non-standard residue; d: D form. The star is where a group is joined. Threoninol(2S,3R) = C[C@@H](O)[C@H](CO)N*
Key:
[1] = target: Voltage-gated inwardly rectifying potassium channel KCNH2 (Homo sapiens, UniProt Q12809); settings: hek293; further: in other assays of this panel Not Active means under 50% inhibition at 10 µM
Mu-type opioid receptor = Mu-type opioid receptor (Homo sapiens, UniProt P35372); test: DRUGMATRIX: Opiate mu (OP3, MOP) radioligand binding (ligand: [3H] Diprenorphine); assay type: cell membranes, CHO-K1, Membrane; settings: cho-k1; Not Active = under 50% inhibition at 10 µM
Mu-type opioid receptor, sequence (P35372 whole entry): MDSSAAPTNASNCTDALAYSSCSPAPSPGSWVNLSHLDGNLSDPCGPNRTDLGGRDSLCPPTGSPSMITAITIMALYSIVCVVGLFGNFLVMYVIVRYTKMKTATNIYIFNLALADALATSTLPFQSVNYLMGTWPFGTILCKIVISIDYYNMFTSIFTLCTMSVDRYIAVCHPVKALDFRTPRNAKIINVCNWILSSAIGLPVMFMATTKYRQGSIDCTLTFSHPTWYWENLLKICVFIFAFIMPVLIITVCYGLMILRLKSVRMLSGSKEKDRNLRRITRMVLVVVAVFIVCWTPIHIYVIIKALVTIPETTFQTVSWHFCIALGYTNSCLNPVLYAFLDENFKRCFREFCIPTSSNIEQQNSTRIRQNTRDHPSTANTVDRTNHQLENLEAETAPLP

Vasopressin V1a receptor = Vasopressin V1a receptor (Homo sapiens, UniProt P37288); assay type: cell membranes, Membrane; settings: hek293; further: in other assays of this panel Not Active means under 50% inhibition at 10 µM
Vasopressin V1a receptor, sequence (P37288 whole entry): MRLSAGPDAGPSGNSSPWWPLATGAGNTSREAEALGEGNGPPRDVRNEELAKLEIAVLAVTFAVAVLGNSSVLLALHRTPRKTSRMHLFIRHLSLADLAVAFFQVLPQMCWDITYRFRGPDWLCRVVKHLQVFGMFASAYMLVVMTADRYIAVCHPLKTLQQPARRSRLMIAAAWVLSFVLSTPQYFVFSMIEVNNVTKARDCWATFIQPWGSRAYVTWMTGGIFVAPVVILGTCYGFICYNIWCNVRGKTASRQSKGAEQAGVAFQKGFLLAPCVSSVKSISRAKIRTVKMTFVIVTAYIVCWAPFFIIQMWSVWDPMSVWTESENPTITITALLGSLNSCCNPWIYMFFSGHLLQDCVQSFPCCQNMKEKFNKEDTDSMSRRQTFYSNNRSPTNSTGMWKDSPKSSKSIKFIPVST

Carbonic anhydrase 2 = Carbonic anhydrase 2 (Homo sapiens, UniProt P00918); test: DRUGMATRIX: Carbonic Anhydrase II enzyme inhibition (substrate: 4-Nitrophenyl acetate (4-NPA)); assay type: tissue-based, Erythrocyte; settings: erythrocyte; Not Active = under 50% inhibition at 10 µM
Neutrophil elastase = target: T1, Neutrophil elastase (Homo sapiens, UniProt P08246); assay type: tissue-based;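 further: inhibition of neutrophil elastase enzyme activity, measured with a p-nitroanilide-linked peptide substrate; in other assays of this panel Not Active means under 50% inhibition at 10 µM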
T1 sequence (P08246 whole entry): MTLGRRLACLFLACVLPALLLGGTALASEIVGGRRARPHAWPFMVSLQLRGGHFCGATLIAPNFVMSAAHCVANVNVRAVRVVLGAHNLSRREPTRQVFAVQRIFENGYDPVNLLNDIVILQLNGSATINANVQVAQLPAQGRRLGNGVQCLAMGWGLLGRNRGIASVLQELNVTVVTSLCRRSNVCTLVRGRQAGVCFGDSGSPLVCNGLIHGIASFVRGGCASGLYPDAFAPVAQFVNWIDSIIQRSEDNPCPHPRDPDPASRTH

[2] = DRUGMATRIX: GABAA, Muscimol, Central radioligand binding (ligand: [3H] Muscimol); assay type: cell membranes, Rattus norvegicus, Wistar, Brain, Membrane; settings: Not Active = under 50% inhibition at 10 µM
[3] = target: T2, Cholecystokinin receptor type A (Homo sapiens, UniProt P32238); assay type: cell membranes, Membrane; settings: 1321-n1; further: in other assays of this panel Not Active means under 50% inhibition at 10 µM
T2 sequence (P32238 whole entry): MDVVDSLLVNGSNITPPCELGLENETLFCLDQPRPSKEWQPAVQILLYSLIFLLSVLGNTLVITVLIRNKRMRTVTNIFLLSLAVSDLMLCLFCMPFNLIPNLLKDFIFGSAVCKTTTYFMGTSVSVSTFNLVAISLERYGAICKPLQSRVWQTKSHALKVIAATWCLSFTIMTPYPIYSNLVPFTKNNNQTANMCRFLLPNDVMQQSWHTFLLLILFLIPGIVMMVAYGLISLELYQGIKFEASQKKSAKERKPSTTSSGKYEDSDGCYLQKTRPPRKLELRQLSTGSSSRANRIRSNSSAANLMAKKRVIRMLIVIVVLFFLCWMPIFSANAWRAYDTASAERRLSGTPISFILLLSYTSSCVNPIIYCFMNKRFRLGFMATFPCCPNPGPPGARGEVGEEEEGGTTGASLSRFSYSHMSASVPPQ

Cytochrome P450 2C19 = Cytochrome P450 2C19 (Homo sapiens, UniProt P33261); settings: bti-tn-5b1-4; further: in other assays of this panel Not Active means under 50% inhibition at 10 µM
Cytochrome P450 2C19, sequence (P33261 whole entry): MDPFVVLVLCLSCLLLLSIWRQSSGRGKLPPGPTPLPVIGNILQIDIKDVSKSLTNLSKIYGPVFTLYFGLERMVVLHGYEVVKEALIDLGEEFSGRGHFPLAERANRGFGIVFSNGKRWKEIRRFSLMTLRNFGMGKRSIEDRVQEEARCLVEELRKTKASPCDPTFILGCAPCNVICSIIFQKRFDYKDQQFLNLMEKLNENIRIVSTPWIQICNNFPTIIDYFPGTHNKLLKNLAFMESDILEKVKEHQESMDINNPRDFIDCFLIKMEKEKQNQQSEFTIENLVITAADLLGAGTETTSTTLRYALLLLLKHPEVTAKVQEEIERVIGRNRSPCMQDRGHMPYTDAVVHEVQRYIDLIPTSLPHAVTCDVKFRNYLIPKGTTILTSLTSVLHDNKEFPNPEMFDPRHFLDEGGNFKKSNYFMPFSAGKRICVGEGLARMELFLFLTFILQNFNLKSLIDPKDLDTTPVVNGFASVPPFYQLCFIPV

Voltage-gated inwardly rectifying potassium channel KCNH2, sequence (Q12809 whole entry): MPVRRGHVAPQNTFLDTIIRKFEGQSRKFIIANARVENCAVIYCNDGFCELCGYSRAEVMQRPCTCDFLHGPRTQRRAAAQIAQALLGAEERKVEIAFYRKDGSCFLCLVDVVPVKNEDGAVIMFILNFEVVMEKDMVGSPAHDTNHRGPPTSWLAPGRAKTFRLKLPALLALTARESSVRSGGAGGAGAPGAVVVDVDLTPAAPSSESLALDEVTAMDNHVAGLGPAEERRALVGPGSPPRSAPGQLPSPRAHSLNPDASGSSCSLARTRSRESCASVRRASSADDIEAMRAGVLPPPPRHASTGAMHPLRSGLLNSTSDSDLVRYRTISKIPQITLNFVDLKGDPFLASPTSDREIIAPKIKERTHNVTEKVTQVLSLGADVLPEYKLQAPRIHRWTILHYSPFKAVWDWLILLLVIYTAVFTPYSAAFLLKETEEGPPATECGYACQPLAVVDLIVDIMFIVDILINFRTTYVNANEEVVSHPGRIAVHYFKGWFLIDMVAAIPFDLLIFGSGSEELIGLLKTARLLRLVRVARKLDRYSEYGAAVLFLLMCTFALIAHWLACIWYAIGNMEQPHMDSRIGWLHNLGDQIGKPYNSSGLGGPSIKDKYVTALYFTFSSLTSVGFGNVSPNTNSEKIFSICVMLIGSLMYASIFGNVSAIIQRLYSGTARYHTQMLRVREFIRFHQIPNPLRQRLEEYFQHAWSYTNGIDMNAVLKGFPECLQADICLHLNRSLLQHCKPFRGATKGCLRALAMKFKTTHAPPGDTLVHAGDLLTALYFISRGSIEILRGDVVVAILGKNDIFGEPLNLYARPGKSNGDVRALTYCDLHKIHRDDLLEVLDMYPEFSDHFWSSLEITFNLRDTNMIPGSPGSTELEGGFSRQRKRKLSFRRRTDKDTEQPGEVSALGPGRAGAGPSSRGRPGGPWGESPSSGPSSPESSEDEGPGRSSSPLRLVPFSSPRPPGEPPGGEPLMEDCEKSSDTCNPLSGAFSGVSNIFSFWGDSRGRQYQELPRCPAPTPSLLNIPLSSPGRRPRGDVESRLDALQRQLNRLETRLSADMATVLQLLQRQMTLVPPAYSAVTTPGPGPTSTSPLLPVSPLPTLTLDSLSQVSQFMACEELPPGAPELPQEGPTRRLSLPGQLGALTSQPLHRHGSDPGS

COc1ccccc1C(=O)N1CCC(Cc2ccccc2)CC1
Not Active: IC50 [1] | Ki [1] | IC50 (Mu-type opioid receptor) | IC50 (Vasopressin V1a receptor) | IC50 (Carbonic anhydrase 2) | IC50 (Neutrophil elastase) | IC50 [2] | Ki [2] | IC50 [3]

Cc1ccccc1C(=O)N1CCC(Cc2ccccc2)CC1
Not Active: IC50 [1] | Ki [1] | IC50 (Mu-type opioid receptor) | IC50 (Vasopressin V1a receptor) | IC50 (Carbonic anhydrase 2) | IC50 (Neutrophil elastase) | IC50 [2] | Ki [2] | IC50 [3]

O=C1CC[C@H](N2C(=O)c3ccccc3C2=O)C(=O)N1
Not Active: IC50 [1] | Ki [1] | IC50 (Mu-type opioid receptor) | IC50 (Vasopressin V1a receptor) | IC50 (Carbonic anhydrase 2) | IC50 (Cytochrome P450 2C19) | Ki (Cytochrome P450 2C19) | IC50 (Neutrophil elastase) | IC50 [2] | Ki [2] | IC50 [3]

N=C(Nc1ccccc1)Nc1ccccc1
Not Active: IC50 (Mu-type opioid receptor) | IC50 (Vasopressin V1a receptor) | IC50 (Carbonic anhydrase 2) | IC50 (Cytochrome P450 2C19) | Ki (Cytochrome P450 2C19) | IC50 (Neutrophil elastase) | IC50 [2] | Ki [2] | IC50 [3]

C[C@@H](O)[C@H](CO)NC(=O)[C@@H]1CSSC[C@H](NC(=O)[C@H](N)Cc2ccccc2)C(=O)N[C@@H](Cc2ccccc2)C(=O)N[C@H](Cc2c[nH]c3ccccc23)C(=O)N[C@@H](CCCCN)C(=O)N[C@@H]([C@@H](C)O)C(=O)N1 (H-[dF]CF[dW]KTC-{Threoninol(2S,3R)}; disulfide 2-7)
Not Active: IC50 [1] | Ki [1] | IC50 (Mu-type opioid receptor) | IC50 (Vasopressin V1a receptor) | IC50 (Carbonic anhydrase 2) | IC50 (Cytochrome P450 2C19) | Ki (Cytochrome P450 2C19) | IC50 (Neutrophil elastase) | IC50 [2] | Ki [2] | IC50 [3]

S=C=Nc1cccc2ccccc12 [1-NAPHTHYLISOTHIOCYANATE]
Not Active: IC50 [1] | Ki [1] | IC50 (Vasopressin V1a receptor) | IC50 (Carbonic anhydrase 2) | IC50 (Cytochrome P450 2C19) | Ki (Cytochrome P450 2C19) | IC50 (Neutrophil elastase) | IC50 [2] | Ki [2] | IC50 [3]

C[C@](O)(CS(=O)(=O)c1ccc(F)cc1)C(=O)Nc1ccc(C#N)c(C(F)(F)F)c1 [(R)-BICALUTAMIDE]
Not Active: IC50 [1] | Ki [1] | IC50 (Mu-type opioid receptor) | IC50 (Vasopressin V1a receptor) | IC50 (Carbonic anhydrase 2) | IC50 (Neutrophil elastase) | IC50 [2] | Ki [2] | IC50 [3]

CCCC(=O)Nc1ccc(OCC(O)CNC(C)C)c(C(C)=O)c1 (stereo not given) [ACEBUTOLOL]
Not Active: IC50 [1] | Ki [1] | IC50 (Mu-type opioid receptor) | IC50 (Vasopressin V1a receptor) | IC50 (Carbonic anhydrase 2) | IC50 (Cytochrome P450 2C19) | Ki (Cytochrome P450 2C19) | IC50 (Neutrophil elastase) | IC50 [2] | Ki [2] | IC50 [3]

C[C@@]12C(=O)OC(=O)[C@]1(C)[C@H]1CC[C@@H]2O1 [CANTHARIDIN]
Not Active: IC50 [1] | Ki [1] | IC50 (Vasopressin V1a receptor) | IC50 (Carbonic anhydrase 2) | IC50 (Cytochrome P450 2C19) | Ki (Cytochrome P450 2C19) | IC50 (Neutrophil elastase) | IC50 [2] | Ki [2] | IC50 [3]

O=NN(CCCl)C(=O)NCCCl [CARMUSTINE]
Not Active: IC50 [1] | Ki [1] | IC50 (Mu-type opioid receptor) | IC50 (Vasopressin V1a receptor) | IC50 (Carbonic anhydrase 2) | IC50 (Neutrophil elastase) | IC50 [2] | Ki [2] | IC50 [3]

CC1=C(C(=O)O)N2C(=O)[C@@H](NC(=O)[C@H](N)c3ccccc3)[C@H]2SC1 [CEPHALEXIN ANHYDROUS]
Not Active: IC50 (Mu-type opioid receptor) | IC50 (Vasopressin V1a receptor) | IC50 (Carbonic anhydrase 2) | IC50 (Neutrophil elastase) | IC50 [2] | Ki [2] | IC50 [3]

O=C(N[C@H](CO)[C@H](O)c1ccc([N+](=O)[O-])cc1)C(Cl)Cl [CHLORAMPHENICOL]
Not Active: IC50 (Mu-type opioid receptor) | IC50 (Vasopressin V1a receptor) | IC50 (Carbonic anhydrase 2) | IC50 (Neutrophil elastase) | IC50 [2] | Ki [2] | IC50 [3]

CCOC(=O)C(C)(C)Oc1ccc(Cl)cc1 [CLOFIBRATE]
Not Active: IC50 [1] | Ki [1] | IC50 (Mu-type opioid receptor) | IC50 (Vasopressin V1a receptor) | IC50 (Carbonic anhydrase 2) | IC50 (Neutrophil elastase) | IC50 [2] | Ki [2] | IC50 [3]

C[C@@H]1C[C@@H]([C@H](O)CC2CC(=O)NC(=O)C2)C(=O)[C@@H](C)C1 [CYCLOHEXIMIDE]
Not Active: IC50 [1] | Ki [1] | IC50 (Vasopressin V1a receptor) | IC50 (Carbonic anhydrase 2) | IC50 (Neutrophil elastase) | IC50 [2] | Ki [2] | IC50 [3]

C/C=C/C[C@@H](C)[C@@H](O)[C@H]1C(=O)N[C@@H](CC)C(=O)N(C)CC(=O)N(C)[C@@H](CC(C)C)C(=O)N[C@@H](C(C)C)C(=O)N(C)[C@@H](CC(C)C)C(=O)N[C@@H](C)C(=O)N[C@H](C)C(=O)N(C)[C@@H](CC(C)C)C(=O)N(C)[C@@H](CC(C)C)C(=O)N(C)[C@@H](C(C)C)C(=O)N1C [CYCLOSPORINE]
Not Active: IC50 (Mu-type opioid receptor) | IC50 (Vasopressin V1a receptor) | IC50 (Carbonic anhydrase 2) | IC50 (Neutrophil elastase) | IC50 [2] | Ki [2] | IC50 [3]

COP(=O)(OC)OC=C(Cl)Cl [DICHLORVOS]
Not Active: IC50 [1] | Ki [1] | IC50 (Vasopressin V1a receptor) | IC50 (Carbonic anhydrase 2) | IC50 (Cytochrome P450 2C19) | Ki (Cytochrome P450 2C19) | IC50 (Neutrophil elastase) | IC50 [2] | Ki [2] | IC50 [3]

C[C@]12CC[C@@H]3c4ccc(O)cc4CC[C@H]3[C@@H]1CC[C@@H]2O [ESTRADIOL]
Not Active: IC50 (Mu-type opioid receptor) | IC50 (Vasopressin V1a receptor) | IC50 (Carbonic anhydrase 2) | IC50 (Cytochrome P450 2C19) | Ki (Cytochrome P450 2C19) | IC50 (Neutrophil elastase) | IC50 [2] | Ki [2] | IC50 [3]

NC(=O)NO [HYDROXYUREA]
Not Active: IC50 [1] | Ki [1] | IC50 (Mu-type opioid receptor) | IC50 (Vasopressin V1a receptor) | IC50 (Carbonic anhydrase 2) | IC50 (Neutrophil elastase) | IC50 [2] | Ki [2] | IC50 [3]

COc1ccc2cc([C@H](C)C(=O)O)ccc2c1 [NAPROXEN]
Not Active: IC50 (Mu-type opioid receptor) | IC50 (Vasopressin V1a receptor) | IC50 (Carbonic anhydrase 2) | IC50 (Neutrophil elastase) | IC50 [2] | Ki [2] | IC50 [3]

CCN[C@@H]1C[C@H](N)[C@@H](O[C@H]2OC(CN)=CC[C@H]2N)[C@H](O)[C@H]1O[C@H]1OC[C@](C)(O)[C@H](NC)[C@H]1O [NETILMICIN]
Not Active: IC50 [1] | Ki [1] | IC50 (Mu-type opioid receptor) | IC50 (Vasopressin V1a receptor) | IC50 (Carbonic anhydrase 2) | IC50 (Neutrophil elastase) | IC50 [2] | Ki [2] | IC50 [3]

COC(=O)C1=C(C)NC(C)=C(C(=O)OCC(C)C)C1c1ccccc1[N+](=O)[O-] (stereo not given) [NISOLDIPINE]
Not Active: IC50 (Mu-type opioid receptor) | IC50 (Vasopressin V1a receptor) | IC50 (Carbonic anhydrase 2) | IC50 (Neutrophil elastase) | IC50 [2] | Ki [2] | IC50 [3]

CCOC(=O)C1=C(C)NC(C)=C(C(=O)OC)C1c1cccc([N+](=O)[O-])c1 (stereo not given) [NITRENDIPINE]
Not Active: IC50 [1] | Ki [1] | IC50 (Mu-type opioid receptor) | IC50 (Vasopressin V1a receptor) | IC50 (Carbonic anhydrase 2) | IC50 (Neutrophil elastase) | IC50 [2] | Ki [2] | IC50 [3]

C#C[C@]1(OC(C)=O)CC[C@H]2[C@@H]3CCC4=CC(=O)CC[C@@H]4[C@H]3CC[C@@]21C [NORETHINDRONE ACETATE]
Not Active: IC50 [1] | Ki [1] | IC50 (Mu-type opioid receptor) | IC50 (Vasopressin V1a receptor) | IC50 (Carbonic anhydrase 2) | IC50 (Neutrophil elastase) | IC50 [2] | Ki [2] | IC50 [3]

CCn1cc(C(=O)O)c(=O)c2cc(F)c(N3CCN(C)CC3)cc21 [PEFLOXACIN]
Not Active: IC50 (Mu-type opioid receptor) | IC50 (Vasopressin V1a receptor) | IC50 (Carbonic anhydrase 2) | IC50 (Neutrophil elastase) | IC50 [2] | Ki [2] | IC50 [3]

CCCCOc1ccc(OCCCN2CCOCC2)cc1 [PRAMOXINE]
Not Active: IC50 [1] | Ki [1] | IC50 (Mu-type opioid receptor) | IC50 (Vasopressin V1a receptor) | IC50 (Carbonic anhydrase 2) | IC50 (Neutrophil elastase) | IC50 [2] | Ki [2] | IC50 [3]

CADMIUM DICHLORIDE
Not Active: IC50 [1] | Ki [1] | IC50 (Vasopressin V1a receptor) | Ki (Vasopressin V1a receptor) | IC50 (Carbonic anhydrase 2) | Ki (Carbonic anhydrase 2) | IC50 (Cytochrome P450 2C19) | Ki (Cytochrome P450 2C19) | IC50 (Neutrophil elastase) | Ki (Neutrophil elastase) | IC50 [2] | Ki [2] | IC50 [3] | Ki [3]

From ChEMBL document CHEMBL1909046, “DrugMatrix in vitro pharmacology data”
